Test results reported in US20250084088A1, “ANTIVIRAL COMPOUNDS AND METHODS OF MAKING AND USING THE SAME” (Gilead Sciences, Inc., priority 2023, published 2025).

Assays:
[1] = MT4 CC50 cytotoxicity in uninfected cells (CC50-MT4-384), Example G; assay type: cell-based; conditions: human; uninfected MT-4 cells, 4-5 days, Cell-Titer Glo
Experimental: Example G. HEp-2 and MT4 CC50 Cytotoxicity of the compounds was determined in uninfected cells using the cell viability reagent in a similar fashion as described before for other cell types ([…] et al., ANTIMICROB AGENTS CHEMOTHER. 2008, 52(2):655-65). HEp-2 (1.5×10^3 cells/well) and MT-4 (2×10^3 cells/well) cells were plated in 384-well plates and incubated with the appropriate medium containing 3-fold serially diluted compound ranging from 15 nM to 100,000 nM. Cells were cultured for 4-5 days at 37° C. Following the incubation, the cells were allowed to equilibrate to 25° C., and cell viability was determined by adding Cell-Titer Glo viability reagent. The mixture was incubated for 10 min, and the luminescence signal was quantified using an Envision plate reader. Untreated cell and cells treated at 2 μM puromycin (Sigma, St. Louis, MO) serve as 100% and 0% cell viability control, respectively. The percent of cell viability was calculated for each tested compound concentration relative to the 0% and 100% controls and the CC50 value was determined by non-linear regression as a compound concentration reducing the cell viability by 50%.

RSV strain A2 = assay: RSV Cellomics assay for RSV A2 antiviral activity (EC50-RSV-Hep2-96-Cellomics), Example Z; assay type: cell-based; conditions: human respiratory syncytial virus, HEp-2, 72 h; Hep2 cells infected with RSV strain A2, MOI=0.05, 3 days, RSV F protein immunofluorescence
Experimental: Example Z: RSV Cellomics Assay for RSV A2 Antiviral Activity (EC50-RSV-Hep2-96-Cellomics) 8×10^3 Hep2 cells are seeded into 96 well plates in 100 μL of media (DMEM supplemented with GlutaMAX, 10% FBS and Pen/Strep) and briefly spun at 50×g for 1 minute to attach cells. Cells were further allowed to attach with overnight incubation at 37° C.+5% CO2. The following day, the media was aspirated and 100 μL of fresh DMEM media containing 2% FBS was added. A three-fold dilution series of compounds of interest are then added to the plate using the Tecan D300e dispenser and the plate is normalized to the well with the highest volume of DMSO. The cells are next infected by adding 100 μL of media containing RSV strain A2 at an MOI=0.05 and the plates incubated for 3 days at 37° C.+5% CO2. Following the incubation, the media is removed, and the cells are washed once with 250 μL PBS and fixed with 250 μL ice-cold 100% methanol for 10 minutes at 4 C. The methanol is then removed and the plates air dried for 5 minutes and then washed once with 250 μL PBS to remove any residual methanol. The wells are then blocked 60 μL/well of BlockAid (B10710, Thermo-Fisher) for 1 hour at RT on rocker at which point the blocking buffer is carefully aspirated. Primary antibody against the RSV F protein (MAB 858-1) is then diluted 1:2000 in SuperBlock (37515, Thermo Fisher) and 50 μL of the primary antibody solution is added to each well. The plates are incubated at room temperature for 1 hour with gentle agitation and then washed with 250 μL of PBS-Tween 3 times. A goat anti-mouse AlexaFluor 647 conjugated secondary antibody (Sigma, A21235) is then diluted 1:2000 and Hoescht 33342 (H3570) at 1:1000 in SuperBlock and 50 μL added to the wells for 1 hour at 37° C. After incubation the antibody solution is aspirated, and the wells are then washed with 250 μL of PBS-Tween 3 times. To keep cells from drying out, 100 μL of PBS is added to each well and the plates are sealed with black plate seal. Fluorescence at the 647 nm wavelength is measured using a Cellomics CellInsight CX7 machine. Compound activity is determined as a percentage of the % positive cells (or average intensity) compared to DMSO treated RSV infected well controls following subtraction of uninfected controls. The EC50 values are then calculated using nonlinear regression analysis in GraphPad Prism.

SMILES | CC50 [1] | EC50 (RSV strain A2)
CC(=O)O[C@H]1[C@H](c2ccc3c(N)ncnn23)O[C@](C#N)(COC(=O)OC(C)OC(=O)[C@H](C(C)C)N(C)C)[C@H]1OC(C)=O (stereo partly drawn) [Compound 7, (2R,3S,4S,5S)-5-(4-aminopyrrolo[2,1-f][1,2,4]triazin-7-yl)-2-cyano-2-((8S)-8-isopropyl-5,9-dimethyl-3,7-dioxo-2,4,6-trioxa-9-azadecyl)tetrahydrofuran-3,4-diyl diacetate] | > 50000 nM | –
COC(=O)OC[C@@]1(C#N)O[C@@H](c2ccc3c(N)ncnn23)[C@H](OC(C)=O)[C@@H]1OC(C)=O [Compound 4, (2R,3S,4S,5S)-5-(4-aminopyrrolo[2,1-f][1,2,4]triazin-7-yl)-2-cyano-2-(((methoxycarbonyl)oxy)methyl)tetrahydrofuran-3,4-diyl diacetate] | > 50000 nM | 54000 nM
CC(=O)O[C@H]1[C@H](c2ccc3c(N)ncnn23)O[C@](C#N)(COC(=O)OC(C)C)[C@H]1OC(C)=O [Compound 3, (2R,3S,4S,5S)-5-(4-aminopyrrolo[2,1-f][1,2,4]triazin-7-yl)-2-cyano-2-(((isopropoxycarbonyl)oxy)methyl)tetrahydrofuran-3,4-diyl diacetate] | > 50000 nM | 100000 nM
CC(=O)O[C@H]1[C@H](c2ccc3c(N)ncnn23)O[C@](C#N)(COC(=O)OCC(C)C)[C@H]1OC(C)=O [Compound 1, (2R,3S,4S,5S)-5-(4-aminopyrrolo[2,1-f][1,2,4]triazin-7-yl)-2-cyano-2-(((isobutoxycarbonyl)oxy)methyl)tetrahydrofuran-3,4-diyl diacetate] | > 50000 nM | 45900 nM
CCC(=O)O[C@H]1[C@H](c2ccc3c(N)ncnn23)O[C@](C#N)(COC(=O)OCC(C)C)[C@H]1OC(=O)CC [Compound 2, (2R,3S,4S,5S)-5-(4-aminopyrrolo[2,1-f][1,2,4]triazin-7-yl)-2-cyano-2-(((isobutoxycarbonyl)oxy)methyl)tetrahydrofuran-3,4-diyl dipropionate] | > 50000 nM | 49200 nM
CCOC(=O)OC[C@@]1(C#N)O[C@@H](c2ccc3c(N)ncnn23)[C@H](OC(=O)OCC)[C@@H]1OC(=O)OCC [Compound 6, (2R,3S,4S,5S)-5-(4-aminopyrrolo[2,1-f][1,2,4]triazin-7-yl)-2-cyano-2-(((ethoxycarbonyl)oxy)methyl)tetrahydrofuran-3,4-diyl diethyl bis(carbonate)] | > 50000 nM | 68600 nM
N#C[C@]1(CO)O[C@@H](c2ccc3c(N)ncnn23)[C@H](O)[C@@H]1O [Compound 0, (2R,3S,4R,5S)-5-(4-aminopyrrolo[1,2-f][1,2,4]triazin-7-yl)-3,4-dihydroxy-2-(hydroxymethyl)tetrahydrofuran-2-carbonitrile, reference compound] | > 50000 nM | 9740 nM
CCOC(=O)OC[C@@]1(C#N)O[C@@H](c2ccc3c(N)ncnn23)[C@H](OC(C)=O)[C@@H]1OC(C)=O [Compound 5, (2R,3S,4S,5S)-5-(4-aminopyrrolo[2,1-f][1,2,4]triazin-7-yl)-2-cyano-2-(((ethoxycarbonyl)oxy)methyl)tetrahydrofuran-3,4-diyl diacetate] | > 50000 nM | 61500 nM
